Source: article PMC4235214 (mBio, 2014)
Read-outs that look alike come from different tables or passages of the source.

Legend:
EHEC = assay type: cell-based, enterohemorrhagic Escherichia coli (EHEC) O157:H7
QseC = details: cited from earlier work
[1] = system: S. Typhimurium strain SL1344; set-up: species or system mice (BALB/c); details: mouse, in vivo
EAEC O104:H4 [2] = assay type: cell-based, enteroaggregative E. coli (EAEC)
in vivo = details: female, CD-1, mouse
[3] = 5, 20, and 80 mg/kg daily for 14 days
hERG channel = hERG channel (Homo sapiens, UniProt Q12809); assay: in vitro
[4] = system: Pseudomonas and Klebsiella isolates; assay type: cell-based
EAEC O104:H4 [5] = assay type: cell-based, enteroaggregative E. coli (EAEC); details: EAEC O104:H4, 5 nM, 24 h
S. Typhimurium = assay type: cell-based, Salmonella enterica serovar Typhimurium; details: J774 macrophages, 5 nM
[6] = mouse, in vivo; cited from earlier work
UPEC = assay type: cell-based, uropathogenic E. coli (UPEC); details: for reduction of biofilm formation: 24 h

hERG channel, sequence (Q12809 whole entry): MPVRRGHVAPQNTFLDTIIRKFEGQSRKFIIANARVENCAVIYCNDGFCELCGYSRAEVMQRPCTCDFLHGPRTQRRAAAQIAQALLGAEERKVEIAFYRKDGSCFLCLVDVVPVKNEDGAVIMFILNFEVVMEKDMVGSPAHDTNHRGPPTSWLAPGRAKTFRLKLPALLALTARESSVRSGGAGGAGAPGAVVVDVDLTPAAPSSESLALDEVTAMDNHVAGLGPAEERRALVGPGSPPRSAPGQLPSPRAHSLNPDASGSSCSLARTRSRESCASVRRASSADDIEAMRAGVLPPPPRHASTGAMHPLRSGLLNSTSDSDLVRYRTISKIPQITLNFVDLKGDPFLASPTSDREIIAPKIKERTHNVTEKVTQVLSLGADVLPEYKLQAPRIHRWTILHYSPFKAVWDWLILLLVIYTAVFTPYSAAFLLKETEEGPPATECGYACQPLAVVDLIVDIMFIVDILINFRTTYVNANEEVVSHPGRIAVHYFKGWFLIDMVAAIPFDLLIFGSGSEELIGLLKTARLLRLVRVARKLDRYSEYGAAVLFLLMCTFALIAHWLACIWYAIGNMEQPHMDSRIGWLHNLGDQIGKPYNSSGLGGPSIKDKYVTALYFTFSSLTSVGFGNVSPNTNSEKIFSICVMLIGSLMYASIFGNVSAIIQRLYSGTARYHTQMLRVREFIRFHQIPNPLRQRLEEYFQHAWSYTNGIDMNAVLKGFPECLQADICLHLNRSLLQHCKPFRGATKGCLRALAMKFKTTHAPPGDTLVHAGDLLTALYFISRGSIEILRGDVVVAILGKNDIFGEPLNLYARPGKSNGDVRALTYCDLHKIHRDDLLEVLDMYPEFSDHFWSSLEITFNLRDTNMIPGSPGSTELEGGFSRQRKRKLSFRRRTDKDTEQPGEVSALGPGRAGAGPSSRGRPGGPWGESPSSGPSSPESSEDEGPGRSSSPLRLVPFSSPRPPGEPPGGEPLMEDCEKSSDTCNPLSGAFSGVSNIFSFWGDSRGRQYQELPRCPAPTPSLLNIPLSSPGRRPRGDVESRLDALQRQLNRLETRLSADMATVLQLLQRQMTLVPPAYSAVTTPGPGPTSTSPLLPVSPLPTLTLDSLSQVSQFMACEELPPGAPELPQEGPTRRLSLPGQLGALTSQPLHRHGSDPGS

COc1ccccc1NC(=O)Nc1ccc(S(=O)(=O)Nc2ccccc2)cc1 [CF287, 4-(3-(2-Methoxyphenyl)ureido)-N-phenylbenzenesulfonamide]
expression of ler and stx2a (EHEC): lost the antagonist activity

O=S(=O)(Nc1ccccc1)c1ccc(NC(=S)Nc2ccccc2)cc1 [LED209, N-phenyl-4-(3-phenylthioureido)benzenesulfonamide]
QseC binding to its signals and autophosphorylation (QseC): preventing binding to its signals and consequently its autophosphorylation | mice remained alive [1]: 43% | mice remained alive ([1]; 20 mg/kg): 60% | mice survived ([1]; po, 20 mg/kg): 50% | expression of stx2a (EAEC O104:H4 [2]): significantly reduced | penetration of the blood-brain barrier (20 mg/kg): limited | peak concentrations in plasma (at each oral dose): high | exposures versus dose (oral doses above 80 mg/kg): increased less than proportionally | oral bioavailability (oral gavage, mice): good | pharmacokinetics by the oral route (oral gavage, mice): nonlinear | half-life (in vivo): 0.667 to 1.67 h | liver toxicity [3]: no liver toxicity | toxicity [3]: did not present any toxicity | expression of key virulence genes (ler, tir, stx2a) (EHEC): phenocopied a qseC mutation | expression of ler and stx2a (EHEC): works as well as all of our previous LED209 batches | expression of the virulence genes (LEE: ler, tir) (EHEC): nonresponsive | expression of the virulence genes (ler) (EHEC): did not respond | inhibition at 10 µM (hERG channel): 4% | reduction of biofilm formation ([4]; clinical isolate 18): 26% | reduction of biofilm formation ([4]; clinical isolate 20): 21% | reduction of biofilm formation (EAEC O104:H4 [5]): 37% | decrease of survival of S. Typhimurium within macrophages (S. Typhimurium): 4 logs | pharmacokinetics via the intravenous route [6]: linear | reduction in biofilm formation (UPEC; UPEC clinical isolate 6): 43% | reduction in biofilm formation (UPEC; UPEC clinical isolate 8): 48% | reduction in biofilm formation (UPEC; UPEC clinical isolate 25): 43% | reduction of biofilm formation (UPEC; UPEC strain CFT073, 5 nM, not significant): 8% | reduction of biofilm formation (UPEC; UPEC strain UTI89, 5 nM): 35%

O=C(Nc1ccc(S(=O)(=O)Nc2ccccc2)cc1)Nc1nncs1 [CF290, 4-(3-(1,3,4-Thiadiazol-2-yl)ureido)-N-phenylbenzenesulfonamide]
increase of ler (EHEC): 2 fold

O=C(Nc1ccccc1)Nc1ccc(S(=O)(=O)NC2CCCCC2)cc1 [CF283, N-Cyclohexyl-4-(3-phenylureido)benzenesulfonamide]
expression of ler and stx2a (EHEC): significantly reduced

O=C(Nc1ccccc1)Nc1ccc(NS(=O)(=O)c2ccccc2)cc1 [CF252, N-(4-(3-Phenylureido)phenyl)benzenesulfonamide]
expression of ler and stx2a (EHEC): reversed the antagonist behavior
